PubChem BioAssay (NCI)
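Cells were grown in 96-well plates and exposed to each compound for 48 hours at five concentrations; endpoints were interpolated linearly between bracketing concentrations, or set to the highest concentration if not reached. Here, GI50 denotes the concentration required for 50% inhibition of growth. Definition used: TGI = concentration required for complete inhibition of growth.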

How the values were obtained:
Test in all cases: inhibition of tumour cell growth, NCI panel, 48 h
SN12C renal = test system: SN12C renal
MALME-3M melanoma = test system: MALME-3M melanoma
NCI-H522 lung = test system: NCI-H522 lung
LOX IMVI melanoma = test system: LOX IMVI melanoma
COLO 205 colon = test system: COLO 205 colon
OVCAR-4 ovarian = test system: OVCAR-4 ovarian
MDA-MB-468 breast = test system: MDA-MB-468 breast
SF-268 CNS = test system: SF-268 CNS
TK-10 renal = test system: TK-10 renal
PC-3 prostate = test system: PC-3 prostate
SNB-19 CNS = test system: SNB-19 CNS
SF-295 CNS = test system: SF-295 CNS
OVCAR-5 ovarian = test system: OVCAR-5 ovarian
UACC-62 melanoma = test system: UACC-62 melanoma
HCC-2998 colon = test system: HCC-2998 colon
MCF7 breast = test system: MCF7 breast
UACC-257 melanoma = test system: UACC-257 melanoma
SR leukemia = test system: SR leukemia
HT29 colon = test system: HT29 colon
IGROV1 ovarian = test system: IGROV1 ovarian
RXF 393 renal = test system: RXF 393 renal
OVCAR-8 ovarian = test system: OVCAR-8 ovarian
U251 CNS = test system: U251 CNS
DU-145 prostate = test system: DU-145 prostate
NCI-H23 lung = test system: NCI-H23 lung
SK-MEL-28 melanoma = test system: SK-MEL-28 melanoma
RPMI-8226 leukemia = test system: RPMI-8226 leukemia
K-562 leukemia = test system: K-562 leukemia
NCI-H226 lung = test system: NCI-H226 lung
M14 melanoma = test system: M14 melanoma
A498 renal = test system: A498 renal
SW-620 colon = test system: SW-620 colon
NCI-H460 lung = test system: NCI-H460 lung
EKVX NSCLC = test system: EKVX NSCLC
HL-60(TB) leukemia = test system: HL-60(TB) leukemia
NCI/ADR-RES ovarian = test system: NCI/ADR-RES ovarian
HS 578T breast = test system: HS 578T breast
HCT-116 colon = test system: HCT-116 colon
ACHN renal = test system: ACHN renal
HOP-92 NSCLC = test system: HOP-92 NSCLC
HOP-62 NSCLC = test system: HOP-62 NSCLC
A549 NSCLC = test system: A549 NSCLC
CCRF-CEM leukemia = test system: CCRF-CEM leukemia
T-47D breast = test system: T-47D breast
BT-549 breast = test system: BT-549 breast
KM12 colon = test system: KM12 colon
MOLT-4 leukemia = test system: MOLT-4 leukemia
SK-OV-3 ovarian = test system: SK-OV-3 ovarian
HCT-15 colon = test system: HCT-15 colon
OVCAR-3 ovarian = test system: OVCAR-3 ovarian
SK-MEL-5 melanoma = test system: SK-MEL-5 melanoma
CAKI-1 renal = test system: CAKI-1 renal
786-0 renal = test system: 786-0 renal

In the case of CC(=O)Nc1ccc(-n2cnc3cc(-c4ccc(O)cc4)ccc32)cc1F, the GI50 (SN12C renal) was 5.8 µM, the TGI (SN12C renal) was over 100 µM and the GI50 (MALME-3M melanoma) was 3.35 µM. The TGI (MALME-3M melanoma) was over 100 µM, the GI50 (NCI-H522 lung) was 1630 nM and the TGI (NCI-H522 lung) was 4.14 µM. It also gave a GI50 (LOX IMVI melanoma) of 6.43 µM, a TGI (LOX IMVI melanoma) of over 100 µM and a GI50 (COLO 205 colon) of 3.47 µM. The TGI (COLO 205 colon) was over 100 µM, the GI50 (OVCAR-4 ovarian) was over 100 µM and the TGI (OVCAR-4 ovarian) was over 100 µM. It also gave a GI50 (MDA-MB-468 breast) of 1250 nM, a TGI (MDA-MB-468 breast) of 4.68 µM and a GI50 (SF-268 CNS) of 9.66 µM. The TGI (SF-268 CNS) was over 100 µM, the GI50 (TK-10 renal) was 49.5 µM and the TGI (TK-10 renal) was over 100 µM. The GI50 (PC-3 prostate) was 3.66 µM, the TGI (PC-3 prostate) was over 100 µM and the GI50 (SNB-19 CNS) was 4.73 µM. It also gave a TGI (SNB-19 CNS) of over 100 µM, a GI50 (SF-295 CNS) of 3.34 µM and a TGI (SF-295 CNS) of over 100 µM. It also gave a GI50 (OVCAR-5 ovarian) of 6.22 µM, a TGI (OVCAR-5 ovarian) of over 100 µM and a GI50 (UACC-62 melanoma) of 2550 nM. The TGI (UACC-62 melanoma) was over 100 µM, the GI50 (HCC-2998 colon) was 5.6 µM and the TGI (HCC-2998 colon) was over 100 µM. The GI50 (MCF7 breast) was 2450 nM, the TGI (MCF7 breast) was over 100 µM and the GI50 (UACC-257 melanoma) was 21.5 µM. For the same compound, the TGI (UACC-257 melanoma) was over 100 µM, the GI50 (SR leukemia) was 377 nM and the TGI (SR leukemia) was 27 µM. It also gave a GI50 (HT29 colon) of 3.86 µM, a TGI (HT29 colon) of over 100 µM and a GI50 (IGROV1 ovarian) of 6.21 µM. It also gave a TGI (IGROV1 ovarian) of over 100 µM, a GI50 (RXF 393 renal) of 1940 nM and a TGI (RXF 393 renal) of 6.14 µM. The GI50 (OVCAR-8 ovarian) was 3.48 µM, the TGI (OVCAR-8 ovarian) was over 100 µM and the GI50 (U251 CNS) was 3.19 µM. It also gave a TGI (U251 CNS) of over 100 µM, a GI50 (DU-145 prostate) of 4.33 µM and a TGI (DU-145 prostate) of over 100 µM. The GI50 (NCI-H23 lung) was 4.77 µM, the TGI (NCI-H23 lung) was over 100 µM and the GI50 (SK-MEL-28 melanoma) was 29.7 µM. The TGI (SK-MEL-28 melanoma) was over 100 µM, the GI50 (RPMI-8226 leukemia) was 3.32 µM and the TGI (RPMI-8226 leukemia) was 16.4 µM. For the same compound, the GI50 (K-562 leukemia) was 496 nM, the TGI (K-562 leukemia) was over 100 µM and the GI50 (NCI-H226 lung) was 83.2 µM. The TGI (NCI-H226 lung) was over 100 µM, the GI50 (M14 melanoma) was 3.39 µM and the TGI (M14 melanoma) was over 100 µM. It also gave a GI50 (A498 renal) of over 100 µM, a TGI (A498 renal) of over 100 µM and a GI50 (SW-620 colon) of 3.01 µM. It also gave a TGI (SW-620 colon) of over 100 µM, a GI50 (NCI-H460 lung) of 3.38 µM and a TGI (NCI-H460 lung) of over 100 µM. It also gave a GI50 (EKVX NSCLC) of 6.04 µM, a TGI (EKVX NSCLC) of over 100 µM and a GI50 (HL-60(TB) leukemia) of 1230 nM. It also gave a TGI (HL-60(TB) leukemia) of 3.85 µM, a GI50 (NCI/ADR-RES ovarian) of 2780 nM and a TGI (NCI/ADR-RES ovarian) of over 100 µM. For the same compound, the GI50 (HS 578T breast) was 2610 nM, the TGI (HS 578T breast) was over 100 µM and the GI50 (HCT-116 colon) was 4.21 µM. For the same compound, the TGI (HCT-116 colon) was over 100 µM, the GI50 (ACHN renal) was 6.33 µM and the TGI (ACHN renal) was over 100 µM. For the same compound, the GI50 (HOP-92 NSCLC) was 23.2 µM, the TGI (HOP-92 NSCLC) was over 100 µM and the GI50 (HOP-62 NSCLC) was 4.53 µM. The TGI (HOP-62 NSCLC) was over 100 µM, the GI50 (A549 NSCLC) was 4.77 µM and the TGI (A549 NSCLC) was over 100 µM. It also gave a GI50 (CCRF-CEM leukemia) of 3.01 µM, a TGI (CCRF-CEM leukemia) of over 100 µM and a GI50 (T-47D breast) of 4.02 µM. It also gave a TGI (T-47D breast) of over 100 µM, a GI50 (BT-549 breast) of 27 µM and a TGI (BT-549 breast) of over 100 µM. The GI50 (KM12 colon) was 3.22 µM, the TGI (KM12 colon) was over 100 µM and the GI50 (MOLT-4 leukemia) was 2670 nM. The TGI (MOLT-4 leukemia) was over 100 µM, the GI50 (SK-OV-3 ovarian) was 5.05 µM and the TGI (SK-OV-3 ovarian) was over 100 µM. It also gave a GI50 (HCT-15 colon) of 831 nM, a TGI (HCT-15 colon) of over 100 µM and a GI50 (OVCAR-3 ovarian) of 3.06 µM. For the same compound, the TGI (OVCAR-3 ovarian) was over 100 µM, the GI50 (SK-MEL-5 melanoma) was 4.09 µM and the TGI (SK-MEL-5 melanoma) was over 100 µM. It also gave a GI50 (CAKI-1 renal) of over 100 µM, a TGI (CAKI-1 renal) of over 100 µM and a GI50 (786-0 renal) of 6.8 µM. For the same compound, the TGI (786-0 renal) was over 100 µM.
